Measurements from ChEMBL document CHEMBL4837239, “Identification of Thieno[3,2-d]pyrimidine Derivatives as Dual Inhibitors of Focal Adhesion Kinase and FMS-like Tyrosine Kinase 3” (J Med Chem, 2021).
pIC50: −log10 of the molar value.

Experiments:
Focal adhesion kinase 1 = Focal adhesion kinase 1 (Homo sapiens, UniProt Q05397); assay: Inhibition of recombinant FAK (unknown origin) by radiometric kinase assay
[1] = Inhibition of FLT3 D835Y (unknown origin); parameters: species or system Homo sapiens
[2] = Metabolic stability in human liver microsomes assessed as compound remaining at 1 uM measured after 1 hr; assay type: ADME, Microsome; settings: read-out: Stabilty
BaF3 [3] = assay: Antiproliferative activity against mouse Ba/F3 cells harbouring FLT3 ITD F691I mutant assessed as growth inhibition measured after 72 hrs by CellTiter-Glo assay; assay type: functional; settings: Mus musculus, BaF3
HCT-116 = assay: Antiproliferative activity against human HCT-116 cells assessed as growth inhibition measured after 72 hrs by CellTiter-Glo assay; assay type: functional
BaF3 [4] = assay: Antiproliferative activity against mouse Ba/F3 cells harbouring FLT3 D835Y mutant assessed as growth inhibition measured after 72 hrs by CellTiter-Glo assay; assay type: functional; settings: Mus musculus, BaF3
MDA-MB-231 = assay: Antiproliferative activity against human MDA-MB-231 cells assessed as growth inhibition measured after 72 hrs by CellTiter-Glo assay; assay type: functional
[5] = Antiproliferative activity against human A375P cells assessed as growth inhibition measured after 72 hrs by CellTiter-Glo assay; assay type: functional
BaF3 [6] = assay: Antiproliferative activity against mouse Ba/F3 cells harbouring FLT3 ITD F691L mutant assessed as growth inhibition measured after 72 hrs by CellTiter-Glo assay; assay type: functional; settings: Mus musculus, BaF3
BaF3 [7] = assay: Antiproliferative activity against mouse Ba/F3 cells assessed as growth inhibition measured after 72 hrs by CellTiter-Glo assay; assay type: functional; settings: Mus musculus, BaF3
BaF3 [8] = assay: Antiproliferative activity against mouse Ba/F3 cells harbouring FLT3 ITD D835Y mutant assessed as growth inhibition measured after 72 hrs by CellTiter-Glo assay; assay type: functional; settings: Mus musculus, BaF3
BaF3 [9] = assay: Antiproliferative activity against mouse Ba/F3 cells harbouring FLT3 ITD mutant assessed as growth inhibition measured after 72 hrs by CellTiter-Glo assay; assay type: functional; settings: Mus musculus, BaF3

Focal adhesion kinase 1, sequence (Q05397 whole entry): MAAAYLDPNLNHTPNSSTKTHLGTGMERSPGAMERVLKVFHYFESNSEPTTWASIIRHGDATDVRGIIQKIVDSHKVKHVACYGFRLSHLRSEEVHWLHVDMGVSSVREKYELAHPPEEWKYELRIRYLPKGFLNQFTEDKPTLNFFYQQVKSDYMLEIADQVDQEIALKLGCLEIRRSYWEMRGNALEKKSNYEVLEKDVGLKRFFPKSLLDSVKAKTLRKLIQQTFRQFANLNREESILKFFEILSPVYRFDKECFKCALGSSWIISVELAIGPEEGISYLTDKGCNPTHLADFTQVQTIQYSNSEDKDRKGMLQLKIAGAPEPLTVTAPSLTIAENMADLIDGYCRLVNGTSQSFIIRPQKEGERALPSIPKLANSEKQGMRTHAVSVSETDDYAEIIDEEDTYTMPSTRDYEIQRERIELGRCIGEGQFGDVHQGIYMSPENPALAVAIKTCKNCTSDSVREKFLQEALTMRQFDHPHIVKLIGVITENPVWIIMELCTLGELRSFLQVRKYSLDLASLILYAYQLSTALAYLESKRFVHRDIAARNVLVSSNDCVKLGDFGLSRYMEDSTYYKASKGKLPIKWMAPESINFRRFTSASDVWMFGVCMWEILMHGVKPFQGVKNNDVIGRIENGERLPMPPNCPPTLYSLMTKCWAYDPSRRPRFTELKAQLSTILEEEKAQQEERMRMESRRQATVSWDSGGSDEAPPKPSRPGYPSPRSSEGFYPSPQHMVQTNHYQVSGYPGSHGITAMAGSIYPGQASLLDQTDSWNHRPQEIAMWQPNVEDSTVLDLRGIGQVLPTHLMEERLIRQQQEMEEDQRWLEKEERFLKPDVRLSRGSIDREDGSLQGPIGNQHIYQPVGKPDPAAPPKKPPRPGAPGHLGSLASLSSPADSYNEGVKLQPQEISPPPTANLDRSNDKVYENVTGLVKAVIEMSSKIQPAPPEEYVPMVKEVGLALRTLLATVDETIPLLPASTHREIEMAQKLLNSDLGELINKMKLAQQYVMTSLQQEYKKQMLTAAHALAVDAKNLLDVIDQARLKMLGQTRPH

SMILES	pIC50 (Focal adhesion kinase 1)	remaining at 1 h, 1 µM [2]	GI50 (HCT-116; Homo sapiens, HCT-116)	GI50 (MDA-MB-231; Homo sapiens, MDA-MB-231)	GI50 ([5]; Homo sapiens, A375P)	other results
CNC(=O)c1ccccc1-c1csc2cnc(Nc3cc(OC)c(OC)c(OC)c3)nc12	7.26					
COc1cc(Nc2ncc3scc(-c4ccccc4NS(C)(=O)=O)c3n2)cc(OC)c1OC	7.11					
COc1cc(Nc2ncc3scc(-c4ccccn4)c3n2)cc(OC)c1OC	7.74					
CCN1CCN(c2ccc(Nc3ncc4scc(-c5ccccn5)c4n3)cc2)CC1	7.92	54.2%	270 nM	290 nM	420 nM	pIC50 [1]: > 9.30; GI50 (BaF3 [3]): 164 nM; GI50 (BaF3 [4]): 1.2 nM; GI50 (BaF3 [6]): 55 nM; GI50 (BaF3 [7]): 206 nM; GI50 (BaF3 [8]): 14.2 nM; GI50 (BaF3 [9]): 9.1 nM
COc1cc(Nc2ncc3scc(-c4ccccc4N(C)S(C)(=O)=O)c3n2)cc(OC)c1OC	7.82					
COc1cc(Nc2ncc3scc(-c4cccnc4)c3n2)cc(OC)c1OC	7.59					
CS(=O)(=O)Nc1cccc(-c2csc3cnc(Nc4ccc(N5CCCCC5)cc4)nc23)c1	7.17	58%				GI50 (HCT-116): 1490 nM; GI50 (MDA-MB-231): 3380 nM; GI50 [5]: 2780 nM
CCN1CCN(c2ccc(Nc3ncc4scc(-c5cccnc5)c4n3)cc2)CC1	7.51	68.9%	9130 nM	820 nM	710 nM	pIC50 [1]: > 9.30; GI50 (BaF3 [3]): 299 nM; GI50 (BaF3 [4]): 7.1 nM; GI50 (BaF3 [6]): 140 nM; GI50 (BaF3 [7]): 596 nM; GI50 (BaF3 [8]): 28.2 nM; GI50 (BaF3 [9]): 20 nM
CCN1CCN(c2ccc(Nc3ncc4scc(-c5cccc(N(C)S(C)(=O)=O)c5)c4n3)cc2)CC1	7.68	57.2%	190 nM	450 nM	220 nM	pIC50 [1]: > 9.30; GI50 (BaF3 [3]): 301 nM; GI50 (BaF3 [4]): 53 nM; GI50 (BaF3 [6]): 117 nM; GI50 (BaF3 [7]): 695 nM; GI50 (BaF3 [8]): 14.3 nM; GI50 (BaF3 [9]): 31.7 nM
CCN1CCN(c2ccc(Nc3ncc4scc(-c5ccccc5S(C)(=O)=O)c4n3)cc2)CC1	6.71		1880 nM	8820 nM	4270 nM	
COc1cc(Nc2ncc3scc(-c4cccc(N(C)S(C)(=O)=O)c4)c3n2)cc(OC)c1OC	7.46					
CCN1CCN(c2ccc(Nc3ncc4scc(-c5cccc(S(=O)(=O)NC)c5)c4n3)cc2)CC1	7.96	60.2%	170 nM	420 nM	400 nM	pIC50 [1]: > 9.30; GI50 (BaF3 [3]): 243 nM; GI50 (BaF3 [4]): 6.1 nM; GI50 (BaF3 [6]): 226 nM; GI50 (BaF3 [7]): 468 nM; GI50 (BaF3 [8]): 13.2 nM; GI50 (BaF3 [9]): 34.7 nM
CN(C)c1ccc(Nc2ncc3scc(-c4cccc(NS(C)(=O)=O)c4)c3n2)cc1	7.74	63.8%				GI50 (HCT-116): 2270 nM; GI50 (MDA-MB-231): 3320 nM; GI50 [5]: 3480 nM
CS(=O)(=O)Nc1cccc(-c2csc3cnc(Nc4ccccc4)nc23)c1	7.52	49.6%				GI50 (HCT-116): 2570 nM; GI50 (MDA-MB-231): 26900 nM; GI50 [5]: 7520 nM
CCN1CCN(c2ccc(Nc3ncc4scc(-c5cccc(C(=O)NC)c5)c4n3)cc2)CC1	7.44	71.1%	300 nM	1260 nM	1360 nM	
